# Laboratory results from patent publication US20240217978A1 (CHONG KUN DANG PHARMACEUTICAL CORP., priority 2021, published 2024).
# Molecular target: human adenosine A2a receptor (Homo sapiens (Human), UniProt P29274)
# Assay: A2a receptor binding affinity, [3H]-NECA radioligand binding test
# Details: [3H]-NECA 37 nM; membrane from HEK-293 cells transfected with human adenosine A2a receptor
# Summary of the method: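 Membranes from HEK-293 cells expressing human A2a receptor were incubated with [3H]-NECA (final 37 nM) and compound for 1 h at room temperature in 50 mM Tris, 10 mM MgCl2, 1 mM EDTA, pH 7.4. Bound ligand was filtered on PEI-coated plates and counted by scintillation to derive IC50 (μM).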
# Sequence of human adenosine A2a receptor (P29274 whole entry): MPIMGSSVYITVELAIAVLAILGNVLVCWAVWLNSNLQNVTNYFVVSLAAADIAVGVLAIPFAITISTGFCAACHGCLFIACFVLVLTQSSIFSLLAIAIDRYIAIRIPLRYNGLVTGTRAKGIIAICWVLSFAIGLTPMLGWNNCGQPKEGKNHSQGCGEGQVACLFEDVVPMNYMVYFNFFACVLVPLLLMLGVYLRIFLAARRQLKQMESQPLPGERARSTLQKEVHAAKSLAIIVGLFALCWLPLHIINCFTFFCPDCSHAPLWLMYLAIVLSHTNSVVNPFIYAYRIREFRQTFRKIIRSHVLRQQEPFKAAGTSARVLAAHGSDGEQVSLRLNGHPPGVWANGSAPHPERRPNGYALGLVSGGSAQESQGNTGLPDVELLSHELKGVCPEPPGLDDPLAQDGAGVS
row,SMILES,IC50
1,"C[C@@H]1CN(CC(C)(C)O)CCN1C(=O)[C@@H]1CCCN1c1nc(N)n2nc(-c3ccco3)nc2n1 [Example 373, ((S)-1-(7-amino-2-(furan-2-yl)-[1,2,4]triazolo[1,5-a][1,3,5]triazin-5-yl)pyrrolidin-2-yl)((R)-4-(2-hydroxy-2-methylpropyl)-2-methylpiperazin-1-yl)methanone]",2 nM
2,"Nc1nc(N2CCC[C@H]2C(=O)N2CCC(C(=O)Nc3cnccn3)CC2)nc2nc(-c3ccco3)nn12 [Example 80, 1-((7-amino-2-(furan-2-yl)-[1,2,4]triazolo[1,5-a][1,3,5]triazin-5-yl)-L-prolyl)-N-(pyrazin-2-yl)piperidin-4-carboxamide]",7 nM
3,"CC(C)(O)CC(=O)N1CCN(C(=O)[C@@H]2CCN2c2nc(N)c3nc(-c4ccco4)sc3n2)CC1 [Example 275, (S)-1-(4-(1-(7-amino-2-(furan-2-yl)thiazolo[5,4-d]pyrimidin-5-yl)azetidin-2-carbonyl)piperazin-1-yl)-3-hydroxy-3-methylbutan-1-one]",26 nM
4,"CN1CCN(C(=O)[C@@H]2CCCN2c2nc(N)n3nc(-c4ccco4)nc3n2)CC1=O [Example 145, 4-((7-amino-2-(furan-2-yl)-[1,2,4]triazolo[1,5-a][1,3,5]triazin-5-yl)-L-prolyl)-1-methylpiperazin-2-one]",13 nM
5,"Nc1nc(N2CCC[C@H]2C(=O)N2CCC(N3CC(F)(F)C3)CC2)cc2nc(-c3ccco3)nn12 [Example 400, (S)-(1-(5-amino-2-(furan-2-yl)-[1,2,4]triazolo[1,5-c]pyrimidin-7-yl)pyrrolidine-2-yl)(4-(3,3-difluoroazetidin-1-yl)piperidin-1-yl)methanone]",14 nM
6,"Nc1nc(N2CC[C@H]2C(=O)N2CCC(C3CCN(CC(F)(F)C(F)(F)F)CC3)CC2)nc2nc(-c3ccco3)nn12 [Example 326, (S)-(1-(7-amino-2-(furan-2-yl)-[1,2,4]triazolo[1,5-a][1,3,5]triazin-5-yl)azetidin-2-yl)(1′-(2,2,3,3,3-pentafluoropropyl)-[4,4′-bipiperidin]-1-yl)methanone]",0.8 nM
7,"Nc1nc(N2CCC[C@H]2C(=O)N2C3CCC2CN(C(=O)c2ccccc2)C3)nc2nc(-c3ccco3)nn12 [Example 158, (8-((7-amino-2-(furan-2-yl)-[1,2,4]triazolo[1,5-a][1,3,5]triazin-5-yl)-L-prolyl)-3,8-diazabicyclo[3.2.1]octan-3-yl)(phenyl)methanone]",12 nM
8,"CC(C)(O)C(=O)N1CCN(C(=O)[C@@H]2CCN2c2nc(N)n3nc(-c4ccco4)nc3n2)CC1 [Example 267, (S)-1-(4-(1-(7-amino-2-(furan-2-yl)-[1,2,4]triazolo[1,5-a][1,3,5]triazin-5-yl)azetidine-2-carbonyl)piperazin-1-yl)-2-hydroxy-2-methylpropan-1-one]",10.8 nM
9,"C[C@@H]1CN(CC(C)(F)F)CCN1C(=O)[C@@H]1CCCN1c1nc(N)n2nc(-c3ccco3)nc2n1 [Example 372, ((S)-1-(7-amino-2-(furan-2-yl)-[1,2,4]triazolo[1,5-a][1,3,5]triazin-5-yl)pyrrolidin-2-yl)((R)-4-(2,2-difluoropropyl)-2-methylpiperazin-1-yl) methanone]",1 nM
10,Cc1ncc(C(=O)N2CCN(C(=O)[C@@H]3CCCN3c3nc(N)n4nc(-c5ccco5)nc4n3)CC2)s1 [Example 104],11 nM
11,"CC(F)(F)CN1CCC(C2CCN(C(=O)[C@@H]3CCN3c3nc(N)n4nc(-c5ccco5)nc4n3)CC2)CC1 [Example 324, (S)-(1-(7-amino-2-(furan-2-yl)-[1,2,4]triazolo[1,5-a][1,3,5]triazin-5-yl)azetidin-2-yl)(1′-(2,2-difluoropropyl)-[4,4′-bipiperidin]-1-yl)methanone]",5 nM
12,"Nc1nc(N2CC[C@H]2C(=O)N2CCN(CC(F)(F)C(F)(F)F)CC2)nc2nc(-c3ccco3)nn12 [Example 256, (S)-(1-(7-amino-2-(furan-2-yl)-[1,2,4]triazolo[1,5-a][1,3,5]triazin-5-yl)azetidin-2-yl)(4-(2,2,3,3,3-pentafluoropropyl)piperazin-1-yl)methanone]",1 nM
13,"Nc1nc(N2CCC[C@H]2C(=O)N2CCN(C3COC3)CC2)nc2nc(-c3ccco3)nn12 [Example 403, (S)-(1-(7-amino-2-(furan-2-yl)-[1,2,4]triazolo[1,5-a][1,3,5]triazin-5-yl)pyrrolidin-2-yl)(4-(oxetan-3-yl)piperazin-1-yl)methanone]",9 nM
14,"CC(C)(O)CN1CCC(C2CCN(C(=O)[C@@H]3CCCN3c3nc(N)n4nc(-c5ccco5)nc4n3)CC2)CC1 [Example 244, (S)-(1-(7-amino-2-(furan-2-yl)-[1,2,4]triazolo[1,5-a][1,3,5]triazin-5-yl)pyrrolidin-2-yl)(1′-(2-hydroxy-2-methylpropyl)-[4,4′-bipiperidin]-1-yl)methanone]",4 nM

# Further lines, results first:
row,IC50,SMILES
1,9 nM,"C[C@@H]1CN(C(=O)c2ccccc2)CCN1C(=O)[C@@H]1CCCN1c1nc(N)n2nc(-c3ccco3)nc2n1 [Example 159, ((R)-4-((7-amino-2-(furan-2-yl)-[1,2,4]triazolo[1,5-a][1,3,5]triazin-5-yl)-L-prolyl)-3-methylpiperazin-1-yl)(phenyl)methanone]"
2,5 nM,"Nc1nc(N[C@H](C(=O)N2CCN(CC(F)(F)C(F)F)CC2)C2CC2)nc2nc(-c3ccco3)nn12 [Example 359, (S)-2-((7-amino-2-(furan-2-yl)-[1,2,4]triazolo [1,5-a][1,3,5]triazin-5-yl)amino)-2-cyclopropyl-1-(4-(2,2,3,3-tetrafluoropropyl)piperazin-1-yl)ethan-1-one]"
3,8 nM,"CCCCN1CCN(C(=O)[C@@H]2CCN2c2nc(N)n3nc(-c4ccco4)nc3n2)CC1 [Example 111, (S)-(1-(7-amino-2-(furan-2-yl)-[1,2,4]triazolo[1,5-a][1,3,5]triazin-5-yl)azetidin-2-yl)(4-butylpiperazin-1-yl)methanone]"
4,9 nM,"C[C@H](Nc1nc(N)n2nc(-c3ccco3)nc2n1)C(=O)N1CCN(CC(C)(C)F)CC1 [Example 119, (S)-2-((7-amino-2-(furan-2-yl)-[1,2,4]triazolo[1,5-a][1,3,5]triazin-5-yl)amino)-1-(4-(2-fluoro-2-methylpropyl)piperazin-1-yl)propan-1-one]"
5,11 nM,"COC[C@H](Nc1nc(N)n2nc(-c3ccco3)nc2n1)C(=O)N1CCN(c2ncccn2)CC1 [Example 304, (S)-2-((7-amino-2-(furan-2-yl)-[1,2,4]triazolo[1,5-a][1,3,5]triazin-5-yl)amino)-3-methoxy-1-(4-(pyrimidin-2-yl)piperazin-1-yl)propan-1-one]"
6,13 nM,"CCOC[C@H](Nc1nc(N)n2nc(-c3ccco3)nc2n1)C(=O)N1CCN(CC(F)(F)F)CC1 [Example 308, (S)-2-((7-amino-2-(furan-2-yl)-[1,2,4]triazolo[1,5-a][1,3,5]triazin-5-yl)amino)-3-ethoxy-1-(4-(2,2,2-trifluoroethyl)piperazin-1-yl)propan-1-one]"
7,3 nM,"CC(C)(F)CN1CCN(C(=O)[C@@H](Nc2nc(N)n3nc(-c4ccco4)nc3n2)c2ccccc2)CC1 [Example 195, (S)-2-((7-amino-2-(furan-2-yl)-[1,2,4]triazolo[1,5-a][1,3,5]triazin-5-yl)amino)-1-(4-(2-fluoro-2-methylpropyl)piperazin-1-yl)-2-phenylethan-1-one]"
8,12 nM,"C[C@H](Nc1nc(N)n2nc(-c3nccs3)nc2n1)C(=O)N1CCN(c2ccc(F)cc2F)CC1 [Example 194, (S)-2-((7-amino-2-(thiazol-2-yl)-[1,2,4]triazolo[1,5-a][1,3,5]triazin-5-yl)amino)-1-(4-(2,4-difluorophenyl)piperazin-1-yl)propan-1-one]"
9,12 nM,"COC[C@H](Nc1nc(N)n2nc(-c3ccco3)nc2n1)C(=O)N1CCN(CC(C)(F)F)CC1 [Example 397, (S)-2-((7-amino-2-(furan-2-yl)-[1,2,4]triazolo[1,5-a][1,3,5]triazin-5-yl)amino)-1-(4-(2,2-difluoropropyl)piperazin-1-yl)-3-methoxypropan-1-one]"
10,7 nM,"Nc1nc(N2CCC[C@H]2C(=O)N2CCN(Cc3ccccc3)CC2)nc2nc(-c3ccco3)nn12 [Example 27, (S)-(1-(7-amino-2-(furan-2-yl)-[1,2,4]triazolo[1,5-a][1,3,5]triazin-5-yl)pyrrolidin-2-yl)(4-benzylpiperazin-1-yl)methanone]"
11,0.125 nM,"Nc1nc(N[C@@H](Cc2ccccc2)C(=O)N2CCN(Cc3ccc(F)cc3)CC2)nc2nc(-c3ccco3)nn12 [Example 18, (S)-2-((7-amino-2-(furan-2-yl)-[1,2,4]triazolo[1,5-a][1,3,5]triazin-5-yl)amino)-1-(4-(4-fluorobenzyl)piperazin-1-yl)-3-phenylpropan-1-one]"
12,13 nM,"C[C@H](Nc1nc(N)n2nc(-c3ccco3)nc2n1)C(=O)N1CCN(CC(C)(F)F)CC1 [Example 317, (S)-2-((7-amino-2-(furan-2-yl)-[1,2,4]triazolo[1,5-a][1,3,5]triazin-5-yl)amino)-1-(4-(2,2-difluoropropyl)piperazin-1-yl)propan-1-one]"
13,61 nM,"C[C@H](Nc1nc(N)n2nc(-c3ccco3)nc2n1)C(=O)N1CCN(Cc2ccc(F)cc2)CC1 [Example 23, (S)-2-((7-amino-2-(furan-2-yl)-[1,2,4]triazolo[1,5-a][1,3,5]triazin-5-yl)amino)-1-(4-(4-fluorobenzyl)piperazin-1-yl)propan-1-one]"
14,4390 nM,"Nc1nc(N2CCC[C@@H]2C(=O)N2CCN(CC(F)(F)F)CC2)nc2nc(-c3ccco3)nn12 [Example 94, (R)-(1-(7-amino-2-(furan-2-yl)-[1,2,4]triazolo[1,5-a][1,3,5]triazin-5-yl)pyrrolidin-2-yl)(4-(2,2,2-trifluoroethyl)piperazin-1-yl)methanone]"
15,11 nM,"CN(C(=O)C1CCN(C(=O)[C@@H]2CCCN2c2nc(N)n3nc(-c4ccco4)nc3n2)CC1)c1ccccc1 [Example 133, 1-((7-amino-2-(furan-2-yl)-[1,2,4]triazolo[1,5-a][1,3,5]triazin-5-yl)-L-prolyl)-N-methyl-N-phenylpiperidin-4-carboxamide]"
